The values below come from patent US20050271661A1, “Methods and reagents for the treatment of immunoinflammatory disorders” (priority 2004, published 2005).

In assay [1] the test system is NFκB. Kind of assay: NFκB-dependent transcription, NFκB luciferase reporter in CCRF-CEM cells activated with PI. Type of assay: cell-based. An excerpt:
(§1) Reporter plasmids were transfected into CCRF-CEM cells using nucleofection (Nucleofector; AMAXA, Germany). Reporter plasmids expressing firefly luciferase (Luc) were purchased from Stratagene. pNFAT-Luc contains four NFAT binding sites; pGRE-Luc contains four GRE sites, and pAP1-Luc contains seven AP1 binding sites. The NFκB luciferase reporter, p(IL6κB)3-50hu.IL6-luc+, contains three NFκB sites and was a generous gift of Dr. De Bosscher (University of Ghent, Belgium). 10^7 cells suspended in 100 μL Amaxa ‘R’ Cell-line solution were transferred to a cuvette. One μL (1 μg/μL) of solution containing reporter plasmid (firefly luciferase) and control plasmid (pRL-TK-Renilla) (Renilla luciferase) (Promega) at a ratio of (10:1) were added to the cell suspension. […] After transfection the cells were suspended in 200 μL medium, allowed to recover for an hour, equal volume of medium containing 2× drugs were added and incubated at 37° C. for 30 min. Then the cells were stimulated with PI for another five hours. The luciferase activity of each of plasmid and control Renilla-plasmid were measured as per the procedure in Promega Luciferase assay kit.
NFκB-dependent transcription was measured by transient transfection of an NFκB reporter plasmid into CCRF-CEM cells and subsequent activation with PI.

In the next assay the test system is IκB. Kind of assay: IκB degradation western blot, PI-activated primary T cells. It counts as cell-based, human. The settings on record: PI 30 min. How it is done: (§2) Purified primary human T-cells (10^7 T-cells at 1×10^6 cells/ml) were pretreated with various drugs for 30 min at 37° C. and then stimulated for 30 minutes with PMA and ionomycin. Cells were then pelleted and extracted with 2× protein load dye (Invitrogen, NP0008). Total cell lysates were boiled and centrifuged before loading. 10-15 μl of lysate (approximately 250,000 cells) per lane was run on a 10-12% Tris-Bis gel, or a 3-8% Tris-Acetate gel (precast from Invitrogen). Proteins were immunoblotted onto immobilon PVDF membrane (Millipore) for 30 min using an Owl Semi-Dry electroblotting system. Membranes were blocked with 4% milk for two hours and then incubated with appropriate primary antibodies, washed three times and then probed with secondary antibodies. Chemi-glow™ (Alpha Innotech) chemilluminescent detection solutions were added and image visualized and captured using an Alpha Imager 8900 (Alpha Innotech). NFAT1 was visualized using an antibody obtained from BD Transduction Laboratory (#610703). IκB-alpha was visualized using an antibody from Santa Cruz Biotechnology (#sc371). Mitogen activated protein kinases (MAPK) were visualized using the following antibodies obtained from Cell Signaling: ERK p44/p42 (phospho, #9101; total, #9102); p38 (phospho, #9211; total, #9212); and JNK/SAPK (phospho, #9251; total, #9252).
Primary T cells were activated in vitro with PI (30 min) and extracted for western blot analysis.

A further assay relates to ERK1/2. Kind of assay: ERK1/2 phosphorylation western blot, activated primary T cells. The settings on record: highest dose tested: cyclosporine 1 μM, prednisolone 3 μM, amoxapine 30 μM, paroxetine 30 μM. It counts as cell-based, human. How it is done: as §2
(§3) Purified primary T cells were activated for 30 minutes and extracted for western blot analysis. Activation of each MAPK was tracked using phosphospecific antibodies to a regulatory site on each type of MAPK, normalized by the measurement of total amounts of each MAPK species (FIGS. 4A-4C).

A further assay deals with p38. Kind of assay: p38 phosphorylation western blot, activated primary T cells. The settings on record: primary T cells activated 30 minutes. It counts as cell-based, human. How it is done: as §2, §3
For orientation: Immunoblotting shows a protein as a band on a membrane.

For assay [2], the system named is NFAT. Kind of assay: NFAT nuclear translocation by immunofluorescence in PI-activated CCRF-CEM cells. It counts as cell-based. From the text: NFAT1 was visualized using an antibody obtained from BD Transduction Laboratory (#610703).
Assay [3] concerns NFAT. Kind of assay: NFAT-dependent transcription, NFAT luciferase reporter in CCRF-CEM cells activated with PI. Type of assay: cell-based.
Excerpt: as §1
Background: Reporter assays use an easily measured gene product as a stand-in for the process of interest.

The subject of another assay is AP1. Kind of assay: AP1-dependent transcription, AP1 luciferase reporter in CCRF-CEM cells activated with PI. It counts as cell-based.
Excerpt: as §1

For assay [4], the system named is NFAT. Kind of assay: NFAT dephosphorylation band shift on western blot, PMA/ionomycin-activated primary T cells. It counts as cell-based, human. To be noted: up to 3 μM. How it is done: as §2, with “Mitogen activated protein kinases (MAPK) were visualized using the following antibodies obtained from Cell Signaling: ERK p44/p42 (phospho, #9101; total, #9102); p38 (phospho, #9211; total, #9212); and JNK/SAPK (phospho, #9251; total, #9252).” left out
T cells were isolated from the buffy coat of male donors between the ages of 35 to 50 years. These T cells were activated in vitro with PMA/ionomycin (PI) for 30 minutes and the phosphorylation of NFAT analyzed by mobility shift on a western blot. […]

Another assay relates to JNK. Kind of assay: JNK activation (phosphorylation) western blot, activated primary T cells. The settings on record: primary T cells activated 30 minutes. Type of assay: cell-based, human. How it is done: as §2, with “#9252). […]” for “#9252).”
Assay [5] deals with NFκB. The settings on record: activated CCRF-CEM cells, p65.

pIC50: −log10 of the molar value.

Turning to `O=C(/C=C/c1ccc(O)c(O)c1)OCCc1ccccc1` [CAPE, caffeic acid phenethyl ester], in the assay on NFκB [1] (CCRF-CEM cells, NFκB reporter, PI), the “inhibition of NFκB-dependent transcription” value was “inhibited”.

Take `Clc1ccc2c(c1)C(N1CCNCC1)=Nc1ccccc1O2` [amoxapine]: the “concentration at which IκB stabilization effects begin” value in the assay with IκB came out at 25 µM. The “prevention of phosphorylation of ERK1/2” value in the assay with ERK1/2 was “not effective”. Besides, the “effect in the p38 assay” value in the assay with p38 was “no effect”.

What is called pIC50 is −log10 of the IC50, conventionally taken in molar units. Take `Fc1ccc([C@@H]2CCNC[C@H]2COc2ccc3c(c2)OCO3)cc1` [paroxetine]: the pIC50 with NFAT [2] (Homo sapiens, read-out: IC50, inhibition of NFAT translocation) is 4.52; with NFAT [3] (Homo sapiens, CCRF-CEM cells, NFAT reporter, read-out: IC50, inhibition of PI-stimulated NFAT transcription), 5.05; in the assay with AP1 (CCRF-CEM cells, AP1 reporter, PI), 4.52 to 4.70. The “concentration at which IκB stabilization effects begin” value with IκB is 15 µM. For the same molecule, the “prevention of phosphorylation of ERK1/2” value in the assay with ERK1/2 is reported as “not effective”. Moreover, in the assay with p38, the “concentration above which some phospho-p38 inhibition is seen” value is on record as “above 10 μM”.

With `C[C@]12C=CC(=O)C=C1CC[C@@H]1[C@@H]2[C@@H](O)C[C@@]2(C)[C@H]1CC[C@]2(O)C(=O)CO` [prednisolone], the “effect on NFAT dephosphorylation” value in the assay on NFAT [4] was “no effect”. Besides, in the assay on NFAT [2], the “activity in NFAT translocation assay” value is given as “not active”. In addition, the “inhibition of PI-stimulated NFAT transcription” value in the assay with NFAT [3] (even at high doses) was “no strong inhibition”. In the assay with IκB, the “effect on IκB degradation” value was “no effect”. The “inhibition of NFκB-dependent transcription” value in the assay with NFκB [1] (at 1 μM) came out at 30%. Moreover, the “prevention of phosphorylation of ERK1/2” value in the assay with ERK1/2 was “not effective”. Further, the “effect in the p38 assay” value with p38 is “no effect”. Moreover, the “effect on JNK” value in the assay on JNK is “no effect”. The “inhibition of AP1-dependent transcription” value with AP1 (at 300 nM) is 30%. For the same molecule, in the assay with NFκB [5], the “effect on NFκB translocation” value was “no effect”.
